These results are taken from US9067888B2, “Inhibitors of protein kinases” (Ingenium Pharmaceuticals GmbH, priority 2010, dated 2015).

Experiment [1] has as its system TNF-alpha inducible reporter gene. Put plainly: Inhibition of TNF-alpha-induced reporter gene expression (luciferase) in HeLa-derived cell line. It is filed as cell-based, human. The note with it: remaining luciferase activity in presence of 3 μM of compound as ratio of DMSO-treated cells, TNF-alpha 50 ng/ml; for activity at 3 µM: Homo sapiens, 6 h, read-out: Efficacy (ratio to DMSO) TNF-alpha induced response. The text has this:
TNF-alpha responsive cell lines like the human HeLa cell line can be used to study cellular responses to TNF-alpha, e.g. transcriptional regulation of a transfected TNF-alpha responsive reporter gene, and effects of kinase inhibitors on this response.
In order to analyse compound effects on TNF-alpha mediated transcriptional response, a HeLa-derived cell line stably transfected with a TNF-alpha inducible reporter gene was used (Panomics Catalog No. RC0013). The cell line was obtained by co-transfection of a luciferase reporter gene (Panomics P/N LR0051) and pHyg into human cervical epithelial HeLa cells, followed by hygromycin selection. TNFα-induced luciferase activity was used to select clones from the hygromycin-resistant cells. The cell line was maintained and stimulated according to the manufacturer's instructions. Briefly, cells were seeded at 5×10^5/well in 1 ml of growth medium in a 12-well plate and incubated in a humidified incubator at 37° C. and 5% CO2 for 24 hours. Medium was replaced with 1 ml of serum free medium and compounds were added up to concentrations of […]. After 1 hour of incubation, TNF-alpha was added to achieve a final concentration of 50 ng/ml. The culture dish was further incubated in a humidified incubator at 37° C. and 5% CO2 for 6 hours, medium was removed and 100 μL of lysis buffer were added to each well and the assay for luciferase activity was performed according to assay manufacturer's (Promega P/N E1500) recommendations. For more information about this cell line, go to worldwide website www(dot)panomics.com.
Compound effects on TNF-alpha-induced reporter gene expression is shown in column 6 in Table 1 given below. Indicated is the remaining luciferase activity after incubation in presence of 3 μM of compound as a ratio of the activity of DMSO-treated cells without compound. Specifically, it was intended to distinguish cell permeable compounds from other compounds having significant inhibitory potency with regard to other CDKs, but fail to penetrate cells or are unstable under the conditions of the experiment.

The next experiment deals with CDK9 (Homo sapiens (Human), UniProt P50750). Put plainly: In vitro kinase inhibition, KinaseProfiler service of Millipore, residual activity. It is filed as biochemical. The note with it: for remaining activity at 0.01 µM / CDK9 10 nM (RA in %): residual activity at 10 nM compound; for remaining activity at 0.01 µM: read-out: CDK9 10 nM (RA in %); for CDK9 100 nM (RA in %) / remaining activity at 0.1 µM: residual activity at 100 nM compound; for remaining activity at 0.1 µM: read-out: CDK9 100 nM (RA in %). The text has this: In vitro kinase assay analysis may be performed using standard techniques described in the art. These techniques are also used by commercial services providers in order to offer in vitro kinase activity assay services, e.g. the assays offered by Millipore Inc. (worldwide website www(dot)millipore.com), ProQinase GmbH (worldwide website www(dot)proqinase.de) and others.
In vitro kinase inhibition results shown in columns 7 to 9 in Table 1 were obtained by employing the KinaseProfiler™ service of Millipore and used to select compounds displaying specificity for CDK9. Specifically, it was intended to distinguish the CDK9-specific compounds from other compounds having significant inhibitory potency also with regard to other CDKs.

Sequence of CDK9 (P50750 whole entry): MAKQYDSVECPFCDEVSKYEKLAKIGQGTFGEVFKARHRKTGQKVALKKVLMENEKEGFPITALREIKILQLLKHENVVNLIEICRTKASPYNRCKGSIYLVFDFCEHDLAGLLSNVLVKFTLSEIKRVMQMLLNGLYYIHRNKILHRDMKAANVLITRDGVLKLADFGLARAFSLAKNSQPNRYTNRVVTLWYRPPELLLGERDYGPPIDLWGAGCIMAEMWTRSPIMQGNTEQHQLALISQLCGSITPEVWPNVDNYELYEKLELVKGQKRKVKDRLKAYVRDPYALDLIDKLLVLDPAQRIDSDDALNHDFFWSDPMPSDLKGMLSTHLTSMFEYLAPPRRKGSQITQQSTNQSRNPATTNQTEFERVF
Sequence of CDK9 (O60563 whole entry partner): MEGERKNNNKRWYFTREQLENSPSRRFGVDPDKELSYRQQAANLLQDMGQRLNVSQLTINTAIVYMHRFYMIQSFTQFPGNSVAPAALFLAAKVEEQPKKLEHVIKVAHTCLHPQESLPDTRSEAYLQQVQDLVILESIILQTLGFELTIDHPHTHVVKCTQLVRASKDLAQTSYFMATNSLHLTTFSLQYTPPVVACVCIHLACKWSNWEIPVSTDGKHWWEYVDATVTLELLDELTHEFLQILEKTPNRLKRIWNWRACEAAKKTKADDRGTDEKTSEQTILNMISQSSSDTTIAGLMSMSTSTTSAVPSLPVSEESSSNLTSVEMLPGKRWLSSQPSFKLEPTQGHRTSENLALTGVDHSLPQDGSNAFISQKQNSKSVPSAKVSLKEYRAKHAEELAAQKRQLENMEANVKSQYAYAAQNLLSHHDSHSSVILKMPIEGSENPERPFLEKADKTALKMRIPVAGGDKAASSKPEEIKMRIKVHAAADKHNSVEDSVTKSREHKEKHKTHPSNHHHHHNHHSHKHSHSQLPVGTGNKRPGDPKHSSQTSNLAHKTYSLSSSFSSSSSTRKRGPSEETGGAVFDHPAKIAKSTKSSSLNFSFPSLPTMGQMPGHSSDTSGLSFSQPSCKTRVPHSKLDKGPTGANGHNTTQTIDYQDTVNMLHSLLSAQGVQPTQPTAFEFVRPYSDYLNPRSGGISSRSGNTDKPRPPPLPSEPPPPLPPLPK

In the case of `COc1cc(F)ccc1-c1ccnc(NC(=O)C(C)c2ccncc2)c1` (stereo not shown) [Example 15, N-(4-(4-Fluoro-2-methoxyphenyl)pyridin-2-yl)-2-(pyridin-4-yl)propanamide], the “Efficacy (ratio to DMSO) TNF-alpha induced response” value in experiment [1] (6 hours) amounted to 0.83. For the same molecule, at CDK9, the remaining activity at 0.01 µM is 84% and the “CDK9 100 nM (RA in %)” value was 64%.

For the molecule `COc1cc(F)ccc1-c1ccnc(NC(=O)Cc2ccnc(N3CCN(C)CC3)c2)c1` [Example 31, N-(4-(4-Fluoro-2-methoxyphenyl)pyridin-2-yl)-2-(2-(4-methylpiperazin-1-yl)pyridin-4-yl)acetamide], in experiment [1], the activity at 3 µM is 4%. For the same molecule, at CDK9, the remaining activity at 0.01 µM came out at 58% and the remaining activity at 0.1 µM came out at 8%.

For `COc1cc(F)ccc1-c1ccnc(NC(=O)Cc2ccccc2)c1` [Example 7, N-(4-(4-Fluoro-2-methoxyphenyl)pyridin-2-yl)-2-phenylacetamide], in experiment [1], the activity at 3 µM is 8%. Besides, on CDK9, the remaining activity at 0.01 µM is 78% and the remaining activity at 0.1 µM was 17%.

As to `COc1cc(F)ccc1-c1ccnc(NC(=O)Cc2cccs2)c1` [Example 9, N-(4-(4-Fluoro-2-methoxyphenyl)pyridin-2-yl)-2-(thiophen-2-yl)acetamide], in experiment [1], the activity at 3 µM is 4%. At CDK9, the remaining activity at 0.01 µM came to 76% and the remaining activity at 0.1 µM was found to be 16%.

On to `COc1cc(F)ccc1-c1ccnc(NC(=O)Cc2ccncc2)c1` [Example 8, N-(4-(4-Fluoro-2-methoxyphenyl)pyridin-2-yl)-2-(pyridin-4-yl)acetamide], for which, in experiment [1], the activity at 3 µM came to 4%. In addition, on CDK9, the remaining activity at 0.01 µM stood at 93% and the remaining activity at 0.1 µM amounted to 7%.

Turning to `COc1ccc(F)cc1-c1ccnc(NC(=O)[C@@H](C)c2ccccc2)c1` [Example 10, (2S)—N-(4-(5-Fluoro-2-methoxyphenyl)pyridin-2-yl)-2-phenylpropanamide], the activity at 3 µM in experiment [1] is 10%. For the same molecule, at CDK9, the remaining activity at 0.01 µM was 68% and the remaining activity at 0.1 µM stood at 10%.

Take `COc1cc(F)ccc1-c1ccnc(NC(=O)[C@@H]2CC[C@H](NCc3ccccc3)C2)c1` [Example 37, (1R,3S)-3-(Benzylamino)-N-(4-(4-fluoro-2-methoxyphenyl)pyridin-2-yl)cyclopentanecarboxamide]: the activity at 3 µM in experiment [1] amounted to 2%. Further, on CDK9, the remaining activity at 0.01 µM is 20% and the remaining activity at 0.1 µM was 2%.

In the case of `COc1cc(F)ccc1-c1ccnc(NC(=O)[C@@H]2CC[C@H](NC(C)=O)C2)c1` [Example 34, (1R,3S)-3-Acetamido-N-(4-(4-fluoro-2-methoxyphenyl)pyridin-2-yl)cyclopentanecarboxamide], in experiment [1], the activity at 3 µM came out at 7%. Further, at CDK9, the remaining activity at 0.01 µM came out at 50% and the remaining activity at 0.1 µM was 8%.

Regarding `COc1ccc([C@H](C)C(=O)Nc2cc(-c3ccc(F)cc3OC)ccn2)cc1` [Example 11, (2S)—N-(4-(4-Fluoro-2-methoxyphenyl)pyridin-2-yl)-2-(4-methoxyphenyl)-propanamide], in experiment [1], the activity at 3 µM amounted to 7%. Also, at CDK9, the remaining activity at 0.01 µM stood at 36% and the remaining activity at 0.1 µM was 6%.

Regarding `COc1cc(F)ccc1-c1ccnc(NC(=O)C(C)c2cccnc2)c1` (stereo not shown) [Example 13, N-(4-(4-Fluoro-2-methoxyphenyl)pyridin-2-yl)-2-(pyridin-3-yl)propanamide], the activity at 3 µM in experiment [1] amounted to 4%. In addition, at CDK9, the remaining activity at 0.01 µM stood at 66% and the remaining activity at 0.1 µM was 2%.

As for `COc1ccc(CC(=O)Nc2cc(-c3ccc(F)cc3OC)ccn2)cn1` [Example 14, N-(4-(4-Fluoro-2-methoxyphenyl)pyridin-2-yl)-2-(6-methoxypyridin-3-yl)acetamide], the activity at 3 µM in experiment [1] was 4%. Moreover, at CDK9, the remaining activity at 0.01 µM worked out at 25% and the remaining activity at 0.1 µM came out at 7%.

Take `COc1cc(F)ccc1-c1ccnc(NC(=O)C2CCCCC2)c1` [Example 1, N-(4-(4-Fluoro-2-methoxyphenyl)pyridin-2-yl)cyclohexanecarboxamide]: the activity at 3 µM in experiment [1] is 23%. Moreover, on CDK9, the remaining activity at 0.01 µM was determined as 88% and the remaining activity at 0.1 µM stood at 23%.

Take `COc1cc(F)ccc1-c1ccnc(NC(=O)C(C)c2ccc(N3CCN(C)CC3)cc2)c1` (stereo not shown) [Example 27, N-(4-(4-Fluoro-2-methoxyphenyl)pyridin-2-yl)-2-(4-(4-methylpiperazin-1-yl)phenyl)propanamide]: in experiment [1], the activity at 3 µM came out at 8%. At CDK9, the remaining activity at 0.01 µM stood at 65% and the remaining activity at 0.1 µM stood at 8%.

For the molecule `COc1cc(F)ccc1-c1ccnc(NC(=O)CC(C)c2cccnc2)c1` (stereo not shown) [Example 23, N-(4-(4-Fluoro-2-methoxyphenyl)pyridin-2-yl)-3-(pyridin-3-yl)butanamide], in experiment [1], the activity at 3 µM turned out to be 89%. Also, at CDK9, the remaining activity at 0.01 µM was determined as 95% and the remaining activity at 0.1 µM was 35%.

In the case of `COc1cc(F)ccc1-c1ccnc(NC(=O)[C@H]2CC[C@@H](NCc3ccccc3)CC2)c1` [Example 38, cis-4-(Benzylamino)-N-(4-(4-fluoro-2-methoxyphenyl)pyridin-2-yl)cyclo-hexanecarboxamide], the activity at 3 µM in experiment [1] was found to be 2%. Also, on CDK9, the remaining activity at 0.01 µM was found to be 65% and the remaining activity at 0.1 µM was determined as 4%.

With `COc1cc(F)ccc1-c1ccnc(NC(=O)[C@@H]2CCC[C@H](NC(C)=O)C2)c1` [Example 40, (1R,3S)-3-Acetamido-N-(4-(4-fluoro-2-methoxyphenyl)pyridin-2-yl)cyclohexanecarboxamide], the activity at 3 µM in experiment [1] stood at 46%. In addition, at CDK9, the remaining activity at 0.01 µM was determined as 89% and the remaining activity at 0.1 µM turned out to be 38%.

As for `COc1cc(F)ccc1-c1ccnc(NC(=O)[C@@H](C)c2cccnc2)c1` (stereo in doubt) [Example 12, N-(4-(4-Fluoro-2-methoxyphenyl)pyridin-2-yl)-2-(pyridin-3-yl)propanamide], the activity at 3 µM in experiment [1] came to 83%. Besides, at CDK9, the remaining activity at 0.01 µM turned out to be 94% and the remaining activity at 0.1 µM was 96%.

As to `COc1cc(F)ccc1-c1ccnc(NC(=O)CC2CCCCC2)c1` [Example 2, 2-Cyclohexyl-N-(4-(4-fluoro-2-methoxyphenyl)pyridin-2-yl)acetamide], the activity at 3 µM in experiment [1] turned out to be 49%. On CDK9, the remaining activity at 0.01 µM turned out to be 78% and the remaining activity at 0.1 µM was found to be 33%.

As to `COc1cc(F)ccc1-c1ccnc(NC(=O)[C@H]2CCC[C@H](NC(C)=O)C2)c1` (relative stereo) [Example 26, trans-3-Acetamido-N-(4-(4-fluoro-2-methoxyphenyl)-pyridin-2-yl)cyclohexanecarboxamide], on CDK9, the “CDK9 10 nM (RA in %)” value came out at 33% and the “CDK9 100 nM (RA in %)” value is 5%.

Regarding `COc1cc(F)ccc1-c1ccnc(NC(=O)Cc2ccnc(Cl)c2)c1` [Example 19, 2-(2-Chloropyridin-4-yl)-N-(4-(4-fluoro-2-methoxyphenyl)pyridin-2-yl)acetamide], in experiment [1], the activity at 3 µM is 6%. Besides, on CDK9, the remaining activity at 0.01 µM turned out to be 49% and the remaining activity at 0.1 µM was 9%.

On to `COc1cc(F)ccc1-c1ccnc(NC(=O)[C@H]2CC[C@@H](Nc3ccncc3)CC2)c1` [Example 32, cis-N-(4-(4-Fluoro-2-methoxyphenyl)pyridin-2-yl)-4-(pyridin-4-ylamino)-cyclohexanecarboxamide], for which, in experiment [1], the activity at 3 µM was 4%. Moreover, on CDK9, the remaining activity at 0.01 µM was found to be 34% and the remaining activity at 0.1 µM came to 4%.

Turning to `COc1cc(F)ccc1-c1ccnc(NC(=O)[C@H]2CC[C@@H](N)CC2)c1` [Example 4, cis-4-Amino-N-(4-(4-fluoro-2-methoxyphenyl)pyridin-2-yl)cyclohexane-carboxamide], in experiment [1], the activity at 3 µM stood at 5%. On CDK9, the remaining activity at 0.01 µM stood at 59% and the remaining activity at 0.1 µM was determined as 4%.

Turning to `COc1cc(F)ccc1-c1ccnc(NC(=O)[C@H]2CCC[C@H](NC(C)=O)C2)c1` (relative stereo) [Example 25, trans-3-Acetamido-N-(4-(4-fluoro-2-methoxyphenyl)-pyridin-2-yl)cyclohexanecarboxamide], at CDK9, the “CDK9 10 nM (RA in %)” value is given as 99% and the “CDK9 100 nM (RA in %)” value is listed as 78%.
